Assay results published in PMC6364417, “Kinase inhibitor library screening identifies synergistic drug combinations effective in sensitive and resistant melanoma cells” (Journal of Experimental & Clinical Cancer Research : CR, 2019).

Key:
Experiment in all cases: Kinase inhibitor library screening, PrestoBlue cell viability, 1 or 10 μM, 72 h
[1] = system: A375-GP cells (Dabrafenib-resistant); details: A375 GP, 72 h
Protocol: (§1) After 72 h of treatment, cell viability was assessed using the PrestoBlue Cell Viability Reagent (ThermoFisher Scientific). Measurements were performed with the CLARIOstar Monochromator microplate reader (BMG Labtech).
(§2) Kinase inhibitor library screening. […] Each cell line was treated in its sensitive form (parental), and also as 2 resistant derivatives, which were made resistant to either Vemurafenib (XP) or Dabrafenib (GP). Drugs were added at 2 different concentrations, 1 and 10 μM, for 72 h and cell viability was assessed using the PrestoBlue Cell Viability assay. Results are depicted as % viability compared to untreated cells. Each cell line was analyzed at least in duplicate. […] (XLSX 95 kb)

[2] = system: 501Mel-XP cells (Vemurafenib-resistant); details: 501Mel XP, 72 h, in %
Protocol: as §1, §2

501Mel cells (parental) = details: 501Mel Parental, 72 h, in %
Protocol: as §1, §2

[3] = system: IGR37-GP cells (Dabrafenib-resistant); details: IGR37 GP, 72 h; for Cell viability in kinase inhibitor library screening, IGR37 GP, 1μΜ: in %
Protocol: as §1, §2

[4] = system: A375-XP cells (Vemurafenib-resistant); details: A375 XP, 72 h
Protocol: as §1, §2

[5] = system: 501Mel-GP cells (Dabrafenib-resistant); details: 501Mel GP, 72 h, in %
Protocol: as §1, §2

[6] = system: IGR37-XP cells (Vemurafenib-resistant); details: IGR37 XP, 72 h; for Cell viability in kinase inhibitor library screening, IGR37 XP, 1μΜ: in %
Protocol: as §1, §2

IGR37 cells (parental) = details: IGR37 Parental, 72 h, in %
Protocol: as §1, §2

A375 cells (parental) = details: A375 Parental, 72 h
Protocol: as §1, §2

Row | SMILES | Cell viability in kinase inhibitor library screening, A375 GP, 1μΜ [1] | Cell viability in kinase inhibitor library screening, A375 GP, 10μΜ [1] | Cell viability in kinase inhibitor library screening, 501Mel XP, 1μΜ [2] | Cell viability in kinase inhibitor library screening, 501Mel XP, 10μΜ [2] | Cell viability in kinase inhibitor library screening, 501Mel Parental, 1μΜ (501Mel cells (parental)) | Cell viability in kinase inhibitor library screening, 501Mel Parental, 10μΜ (501Mel cells (parental)) | Cell viability in kinase inhibitor library screening, IGR37 GP, 10μΜ [3] [%] | Cell viability in kinase inhibitor library screening, A375 XP, 1μΜ [4] | Cell viability in kinase inhibitor library screening, A375 XP, 10μΜ [4] | Cell viability in kinase inhibitor library screening, 501Mel GP, 1μΜ [5] | Cell viability in kinase inhibitor library screening, 501Mel GP, 10μΜ [5] | Cell viability in kinase inhibitor library screening, IGR37 XP, 10μΜ [6] [%] | Cell viability in kinase inhibitor library screening, IGR37 XP, 1μΜ [6] | Cell viability in kinase inhibitor library screening, IGR37 Parental, 1μΜ (IGR37 cells (parental)) | Cell viability in kinase inhibitor library screening, IGR37 Parental, 10μΜ (IGR37 cells (parental)) | Cell viability in kinase inhibitor library screening, A375 Parental, 10μΜ (A375 cells (parental)) | Cell viability in kinase inhibitor library screening, A375 Parental, 1μΜ (A375 cells (parental)) | Cell viability in kinase inhibitor library screening, IGR37 GP, 1μΜ [3]
1 | O=C1NC(=O)/C(=C/c2ccc(-c3ccc(F)cc3O)o2)S1 [AS-252424] | 107.9 | 90.3 | 109.3 | 84.7 | 112.3 | 97.9 | 75.1 | 115.1 | 96.7 | 105.9 | 85.7 | 42.3 | 93.7 | 103.0 | 94.5 | 82.9 | 107.2 | –
2 | O=C1NC(=O)/C(=C/c2ccc3c(c2)OC(F)(F)O3)S1 [AS-604850] | – | 98.8 | – | 90.1 | – | 104.4 | 98 | 109.0 | 106.1 | – | 91.8 | 80.4 | 91.9 | – | 108.6 | 95.5 | 104.7 | 103.0
3 | O=C1NC(=O)/C(=C\c2ccc3nccnc3c2)S1 [AS-605240] | 97.7 | 71.1 | 98.5 | 72.2 | 104.7 | 92.3 | 70.4 | – | 81.1 | 107.4 | 73.8 | – | 98.2 | 99.2 | 94.0 | 76.5 | 99.1 | 91.2
